Data as given in PubChem BioAssay AID330 (DTP/NCI, 2004).
Where “and” joins values, the source holds several entries; their conditions need not be identical. Equal entries are not always repeated. Inconclusive results and toxic doses are left out.

System: P388 leukemia ip, CD2F1 mice, survival T/C
Assay: NCI In Vivo Anticancer Drug Screen. Data for tumor model P388 Leukemia (intraperitoneal) in CD2F1 (CDF1) mice
Settings: endpoint: median survival time, higher = longer survival
Method in brief: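 Mice carrying the transplanted tumor received test compound or vehicle. Survival was recorded in each group, and the value is the treated-group measurement divided by that of the vehicle-treated control group.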

[1] = dose: 50.0 mg/kg/injection, schedule: Q01DX009 (ip), vehicle: saline
[2] = dose: 50.0 mg/kg/injection, schedule: Q01DX009 (ip), vehicle: saline with Tween-80
[3] = dose: 100.0 mg/kg/injection, schedule: Q01DX009 (ip), vehicle: saline with Tween-80
[4] = dose: 100.0 mg/kg/injection, schedule: Q04DX003 (ip), vehicle: saline with Tween-80
[5] = dose: 200.0 mg/kg/injection, schedule: Q01DX009 (ip), vehicle: saline with Tween-80
[6] = dose: 200.0 mg/kg/injection, schedule: Q04DX003 (ip), vehicle: saline with Tween-80

For `OCC1SC(O)C(O)C(O)C1O` (configuration not stated), which T/C (dose: 120.0 mg/kg/injection, schedule: Q##DX005 (ip), vehicle: saline) is on record?
The T/C was 97 % of control.

And the T/C (dose: 240.0 mg/kg/injection, schedule: Q##DX005 (ip), vehicle: saline)?
The T/C was 92 % of control.

What about the T/C (dose: 600.0 mg/kg/injection, schedule: Q01DX001 (ip), vehicle: saline) of the same molecule?
The T/C was 102 % of control and 104 % of control.

What about the T/C (dose: 1200.0 mg/kg/injection, schedule: Q01DX001 (ip), vehicle: saline) of the same molecule?
The T/C was 100 % of control and 104 % of control.

What does the source list for `Cc1sc2ccccc2c(=O)c1CCl`?
T/C (dose: 60.0 mg/kg/injection, schedule: Q01DX005 (ip), vehicle: saline with Tween-80): 111 % of control; T/C (dose: 120.0 mg/kg/injection, schedule: Q01DX005 (ip), vehicle: saline with Tween-80): 104 % of control

Which results are given for `CC(=O)NCCn1ccnc1`?
T/C [1]: 95 % of control; T/C (dose: 100.0 mg/kg/injection, schedule: Q01DX009 (ip), vehicle: saline): 102 % of control; T/C (dose: 200.0 mg/kg/injection, schedule: Q01DX009 (ip), vehicle: saline): 102 % of control

For `NS(=O)(=O)c1cc(Cl)cc(Cl)c1O`, which T/C [2] is on record?
Its T/C is 100 % of control.

And the T/C [3]?
The T/C was 120 % of control.

Which T/C (dose: 50.0 mg/kg/injection, schedule: Q01DX005 (ip), vehicle: saline with Tween-80) does the source give for `CN(C)C1C2(C)CCC(C2)C1(C)C` (configuration not stated) here?
Its T/C is 103 % of control.

What about the T/C (dose: 100.0 mg/kg/injection, schedule: Q01DX005 (ip), vehicle: saline with Tween-80) of the same molecule?
The T/C was 102 % of control.

Which T/C (dose: 6.25 mg/kg/injection, schedule: Q04DX002 (ip), vehicle: saline) does the source give for `COC1(c2ccccc2)N=C(N)NC1(OC)c1ccccc1` (configuration not stated) here?
Its T/C is 103 % of control.

What about the T/C (dose: 12.5 mg/kg/injection, schedule: Q04DX002 (ip), vehicle: saline) of the same molecule?
Its T/C is 102 % of control.

And the T/C (dose: 25.0 mg/kg/injection, schedule: Q04DX002 (ip), vehicle: saline)?
The T/C was 98 % of control.

What does the source list for `CC1(C)CC2=NO[Se]3=C2C(=NO3)C1`?
T/C (dose: 1.56 mg/kg/injection, schedule: Q01DX009 (ip), vehicle: saline with Tween-80): 104 % of control; T/C (dose: 3.12 mg/kg/injection, schedule: Q01DX009 (ip), vehicle: saline with Tween-80): 102 % of control; T/C (dose: 6.25 mg/kg/injection, schedule: Q01DX009 (ip), vehicle: saline with Tween-80): 104 % of control and 111 % of control; T/C (dose: 12.5 mg/kg/injection, schedule: Q01DX009 (ip), vehicle: saline with Tween-80): 117 % of control

With `CCN(CC)CCCNc1cc(C)nc2c1ccc1c2ccc2c(NCCCN(CC)CC)cc(C)nc21` as the molecule, how does the T/C (dose: 12.5 mg/kg/injection, schedule: Q01DX009 (ip), vehicle: water) read?
Its T/C is 105 % of control.

And the T/C (dose: 25.0 mg/kg/injection, schedule: Q01DX009 (ip), vehicle: water)?
The T/C was 103 % of control.

What about the T/C (dose: 50.0 mg/kg/injection, schedule: Q01DX009 (ip), vehicle: water) of the same molecule?
The T/C was 116 % of control.

`[Br][Ga]([Br])[Br]` was tested. Which T/C (dose: 25.0 mg/kg/injection, schedule: Q01DX009 (ip), vehicle: saline) did it give?
The T/C was 115 % of control.

And the T/C [1]?
Its T/C is 100 % of control.

What about the T/C (dose: 100.0 mg/kg/injection, schedule: Q04DX003 (ip), vehicle: saline sonified) of the same molecule?
The T/C was 100 % of control.

Which T/C [2] does the source give for `CCOC(=O)c1ccc(N(CCOS(C)(=O)=O)CCOS(C)(=O)=O)cc1` here?
The T/C was 190 % of control.

And the T/C [3]?
Its T/C is 215 % of control.

And the T/C [4]?
Its T/C is 154 % of control.

And the T/C (dose: 132.0 mg/kg/injection, schedule: Q04DX003 (ip), vehicle: saline with Tween-80)?
Its T/C is 186 % of control.

And the T/C [5]?
Its T/C is 95 % of control.

What about the T/C [6] of the same molecule?
Its T/C is 150 % of control and 195 % of control.

What about the T/C (dose: 300.0 mg/kg/injection, schedule: Q04DX003 (ip), vehicle: saline with Tween-80) of the same molecule?
The T/C was 172 % of control.

Which results are given for `CCCCN(CCCC)CCC(O)c1cc(C(F)(F)F)nc2c(C(F)(F)F)cccc12` (configuration not stated)?
T/C [2]: 104 % of control; T/C [3]: 114 % of control; T/C [5]: 100 % of control

Which results are given for `C(=N\NC1=NCCN1)/c1ccncc1`?
T/C (dose: 50.0 mg/kg/injection, schedule: Q01DX005 (ip), vehicle: saline): 100 % of control; T/C (dose: 100.0 mg/kg/injection, schedule: Q01DX005 (ip), vehicle: saline): 94 % of control

How did the T/C (dose: 15.0 mg/kg/injection, schedule: Q01DX005 (ip), vehicle: Klucel (hydroxypropylcellulose) (HPC)) turn out when `CCC1=C(C)CCN(C)C1Cc1ccc(OC)cc1` (configuration not stated) was run?
Its T/C is 106 % of control.

And the T/C (dose: 30.0 mg/kg/injection, schedule: Q01DX005 (ip), vehicle: Klucel (hydroxypropylcellulose) (HPC))?
The T/C was 98 % of control.

What about the T/C (dose: 60.0 mg/kg/injection, schedule: Q01DX005 (ip), vehicle: Klucel (hydroxypropylcellulose) (HPC)) of the same molecule?
Its T/C is 100 % of control and 102 % of control.

Which results are given for `N#CC(C(=O)N1CCCC1)=C(S)S`?
T/C [3]: 100 % of control; T/C [5]: 100 % of control; T/C (dose: 400.0 mg/kg/injection, schedule: Q01DX009 (ip), vehicle: saline with Tween-80): 100 % of control

Which T/C [4] does the source give for `CC(CC(=O)c1cccc([N+](=O)[O-])c1)=NCC(C)N=C(C)CC(=O)c1cccc([N+](=O)[O-])c1` (configuration not stated) here?
The T/C was 98 % of control.

What about the T/C [6] of the same molecule?
The T/C was 101 % of control.

And the T/C (dose: 400.0 mg/kg/injection, schedule: Q04DX003 (ip), vehicle: saline with Tween-80)?
The T/C was 106 % of control.
